Values joined by “and” are separate entries in the source; they are usually repeats but may differ in a detail not shown here. Equal entries are not always repeated.
Test: rat acute oral toxicity
Settings: in vivo

SMILES: CC/C=C\C#N
- LD50: 198 mg/kg

SMILES: CCOC(=O)CC(SP(=S)(OC)OC)C(=O)OCC (stereo unspecified)
- LD50: 1190 mg/kg

SMILES: CC(C)[C@H](C(=O)OC(C#N)c1cccc(Oc2ccccc2)c1)c1ccc(OC(F)F)cc1 (stereo partly specified)
- LD50: 67 mg/kg

SMILES: Cc1cccc([N+](=O)[O-])c1C
- LD50: 2110 mg/kg

SMILES: CCCCCC
- LD50: 25000 mg/kg

SMILES: CC[Si](Cl)(Cl)Cl
- LD50: 800 mg/kg

SMILES: O=C(C=Cc1ccccc1)OCc1ccccc1
- LD50: 5380 mg/kg

SMILES: CCCCO
- LD50: 790 mg/kg

SMILES: CNC(=O)ON=C(C)SC
- LD50: 14.7 mg/kg

SMILES: CC1(C)[C@H]2[C@H](O)OC(=O)[C@H]21
- LD50: 200 mg/kg

SMILES: CNC(=O)ON=CC(C)(C)SC
- LD50: 0.5 mg/kg

SMILES: O=c1n(Cl)c(=O)n(Cl)c(=O)n1Cl
- LD50: 406 mg/kg

SMILES: CCCCC(C#N)(Cn1cncn1)c1ccc(Cl)cc1 (stereo unspecified)
- LD50: 1600 mg/kg

SMILES: CNC(=O)Oc1ccccc1OC(C)C
- LD50: 41 mg/kg

SMILES: Cc1c(N)cccc1N
- LD50: 1000 mg/kg

SMILES: CC(C)CCCCCCCOP(OCCCCCCCC(C)C)OCCCCCCCC(C)C
- LD50: 12000 mg/kg

SMILES: CCCCCCCCCc1ccc(OCCOCCO)cc1
- LD50: 1310 mg/kg

SMILES: Nc1ccc(Nc2ccccc2)cc1
- LD50: 464 mg/kg

SMILES: COC(=O)Nc1ccc(Cl)c(Cl)c1
- LD50: 522 mg/kg

SMILES: O=S(=O)(O)c1ccc(Nc2nc(Nc3ccc(/C=C/c4ccc(Nc5nc(Nc6ccc(S(=O)(=O)O)cc6)nc(N(CCO)CCO)n5)cc4S(=O)(=O)O)c(S(=O)(=O)O)c3)nc(N(CCO)CCO)n2)cc1
- LD50: 5300 mg/kg

SMILES: CNC(=O)Oc1cc(C)cc(C)c1
- LD50: 245 mg/kg

SMILES: CCOP(=O)(N=C1SCC(C)S1)OCC (stereo unspecified)
- LD50: 8.9 mg/kg

SMILES: O=C1NC(=O)C2C3C(C(O)(c4ccccc4)c4ccccn4)=CC(C3=C(c3ccccc3)c3ccccn3)C12 (stereo unspecified)
- LD50: 3.8 mg/kg

SMILES: CCCCCCCCOC(=O)c1cc(O)c(O)c(O)c1
- LD50: 1960 mg/kg

SMILES: CNc1ccccc1
- LD50: 716 mg/kg

SMILES: CCCCC(CC)COC(=O)CC(C(=O)OCC(CC)CCCC)S(=O)(=O)O (stereo unspecified)
- LD50: 1900 mg/kg

SMILES: Cc1cccc([N+](=O)[O-])c1
- LD50: 1070 mg/kg

SMILES: CC(=O)c1cc2c(cc1C)C(C)(C)C(C)CC2(C)C (stereo unspecified)
- LD50: 920 mg/kg

SMILES: CCOP(=S)(OCC)Oc1ccc(S(C)=O)cc1 (stereo unspecified)
- LD50: 1.8 mg/kg

SMILES: COC(=O)CC(C)=O
- LD50: 2580 mg/kg

SMILES: CN(C)CCN(C)C
- LD50: 268 mg/kg

SMILES: CC(=O)OCCOC(C)=O
- LD50: 6850 mg/kg

SMILES: O=c1ccc(=O)[nH][nH]1
- LD50: 3800 mg/kg

SMILES: C1CCC2CCCCC2C1 (stereo unspecified)
- LD50: 4170 mg/kg

SMILES: O=[N+]([O-])c1ccc(Oc2ccc(Cl)cc2Cl)cc1
- LD50: 2410 mg/kg

SMILES: N[C@@H](Cc1ccc(N(CCCl)CCCl)cc1)C(=O)O
- LD50: 11.2 mg/kg

SMILES: ClCC(Cl)Cl
- LD50: 836 mg/kg

SMILES: CCCCCCCCCC[N+](C)(C)CCCCCCCCCC
- LD50: 84 mg/kg

SMILES: Oc1ccccc1O
- LD50: 260 mg/kg

SMILES: CC1CCCCN1CCCOC(=O)c1ccc(Cl)c(Cl)c1 (stereo unspecified)
- LD50: 800 mg/kg

SMILES: CCNc1nc(Cl)nc(NC(C)(C)C)n1
- LD50: 1500 mg/kg

SMILES: Cc1ccc(/N=C/N(C)/C=N/c2ccc(C)cc2C)c(C)c1
- LD50: 400 mg/kg

SMILES: CNCCO
- LD50: 1390 mg/kg

SMILES: CCCCCCC(CO)CCCC (stereo unspecified)
- LD50: 13000 mg/kg

SMILES: COCC(=O)N(c1c(C)cccc1C)C(C)C(=O)OC (stereo unspecified)
- LD50: 566 mg/kg

SMILES: CC(C)O
- LD50: 4710 mg/kg

SMILES: CN(CC[C@H](N)CC(O)=N[C@H]1C=C[C@H](n2ccc(=N)nc2O)O[C@@H]1C(=O)O)C(=N)N
- LD50: 53.3 mg/kg

SMILES: O=C(OC1CCCCC1)c1ccccc1O
- LD50: 3030 mg/kg

SMILES: CCOC(=O)CC(=O)C(F)(F)F
- LD50: 765 mg/kg

SMILES: Oc1cc(Cl)c(Cl)cc1Cl
- LD50: 820 mg/kg

SMILES: Oc1ccccc1-c1ccccc1
- LD50: 718 mg/kg

SMILES: CC(C)[C@H](C(=O)O[C@H](C#N)c1cccc(Oc2ccccc2)c1)c1ccc(Cl)cc1
- LD50: 88 mg/kg

SMILES: Nc1ccccc1C(F)(F)F
- LD50: 1870 mg/kg

SMILES: c1ccc2ccccc2c1
- LD50: 2200 mg/kg

SMILES: CCOc1ccc2c(c1)C(C)=CC(C)(C)N2
- LD50: 800 mg/kg

SMILES: N#CC(Br)(Br)C(N)=O
- LD50: 178 mg/kg

SMILES: O=[N+]([O-])OCC(CO[N+](=O)[O-])O[N+](=O)[O-]
- LD50: 105 mg/kg

SMILES: Cl/C=C\CCl
- LD50: 81.5 mg/kg

SMILES: Oc1ccc(Cl)cc1Cc1cc(Cl)ccc1O
- LD50: 1510 mg/kg

SMILES: CN(Cc1cnc2nc(N)nc(N)c2n1)c1ccc(C(=O)N[C@@H](CCC(=O)O)C(=O)O)cc1
- LD50: 135 mg/kg

SMILES: CCCCCCCCCCCCCCCCCCOCCO
- LD50: 1900 mg/kg

SMILES: O=C(O)c1ccccc1O
- LD50: 930 mg/kg and 891 mg/kg

SMILES: C1=CC2C3C=CC(C3)C2C1 (stereo unspecified)
- LD50: 366 mg/kg

SMILES: CC(C)OC(=O)Cl
- LD50: 468 mg/kg

SMILES: COc1cc(OC)nc(Oc2cccc(Oc3nc(OC)cc(OC)n3)c2C(=O)O)n1
- LD50: 2640 mg/kg

SMILES: CC(C)CN
- LD50: 224 mg/kg

SMILES: CNN
- LD50: 32 mg/kg

SMILES: CCNc1nc(Cl)nc(NC(C)C)n1
- LD50: 1870 mg/kg

SMILES: CCC(C)=O
- LD50: 2740 mg/kg

SMILES: O=C(O)C(F)(OC(F)(F)C(F)(F)C(F)(F)F)C(F)(F)F (stereo unspecified)
- LD50: 1750 mg/kg

SMILES: CC(C)CCCCCCCO
- LD50: 6400 mg/kg

SMILES: O=C(O)COc1ccc(Cl)cc1Cl
- LD50: 625 mg/kg and 552 mg/kg and 370 mg/kg

SMILES: CCCSP(=S)(OCC)Oc1ccc(SC)cc1 (stereo unspecified)
- LD50: 65 mg/kg

SMILES: CSCCC=O
- LD50: 490 mg/kg

SMILES: CCNP(=S)(OC)O/C(C)=C/C(=O)OC(C)C (stereo unspecified)
- LD50: 59.5 mg/kg

SMILES: CCOC(=O)C(Cl)C(C)=O (stereo unspecified)
- LD50: 233 mg/kg

SMILES: CCCCC(CC)COP(Oc1ccccc1)Oc1ccccc1 (stereo unspecified)
- LD50: 3840 mg/kg

SMILES: Clc1cccc(Cl)c1N=C1NCCN1
- LD50: 67.3 mg/kg

SMILES: CCOc1ccc(CCCCCCC(C)C)cc1
- LD50: 5600 mg/kg

SMILES: ClC1=C(Cl)[C@]2(Cl)[C@H]3[C@H]([C@@H]4C=C[C@H]3C4)[C@@]1(Cl)C2(Cl)Cl (racemic)
- LD50: 39 mg/kg

SMILES: Cc1ccc(S(C)(=O)=O)cc1[N+](=O)[O-]
- LD50: 933 mg/kg

SMILES: Cc1ccc(N)c(C)c1
- LD50: 467 mg/kg

SMILES: CC(C)=CC1C(C(=O)OCc2coc(Cc3ccccc3)c2)C1(C)C (stereo unspecified)
- LD50: 1240 mg/kg

SMILES: N#CCO
- LD50: 8 mg/kg

SMILES: C=CCOC(=O)OCCOCCOC(=O)OCC=C
- LD50: 350 mg/kg

SMILES: ClC1=C(Cl)C(Cl)(C2(Cl)C(Cl)=C(Cl)C(Cl)=C2Cl)C(Cl)=C1Cl
- LD50: 1200 mg/kg
